Assay results from patent US9173836B2, “Pharmaceutical preparations for treatments of diseases and disorders of the breast” (FemmeParma Holding Company, Inc., priority 2003, dated 2015).
Where two headings read alike, the source gives them in different places. Marks after values point to notes of the source that are not given here. Blank lines part the entries; values can stand above or below the compound they belong to.

What was measured:
[1] = assay type: in vitro ADME; details: 10 μg/ml, pH 7.4
Experimental: The concentration in the apparatus was determined after 0 and 180 minutes of incubation to mimic a skin permeation experiment. […] The experiment was done in triplicate.

in vitro = details: for recovery at 48 h, 100 µM: % Recovery
Experimental: Dermatomed human abdominal skin was obtained from Asterand Inc. (Detroit, Mich.). The donor was a person. […] After thawing at room temperature, the skin was soaked in saline for 30 minutes, and then cut to the appropriate size (approximately 4 cm^2) necessary. Excess moisture and saline were wiped off. The tissue was immediately transferred to the Franz-cell diffusion chamber and clamped between the donor and receiver chambers. The exposed surface area of the Franz-cell diffusion chamber was 1.77 cm^2. The receiver compartment was filled with 8 mL KRB buffer. The reservoir also contained a stirring bar to mix the reservoir contents. […] The temperature was set to maintain the tissue surface at 32° C.
Samples (1.0 mL) were taken from the receiver compartment at 0, 2, 4, 8, 24, and 48 hours for formulation assays and the control assay. After taking samples, an equal volume of receiver KRB buffer was added back to replace the buffer removed. For the control assay, 200 μl of dosing solution (prior to 0 hours) was taken from the container and 200 μl of 0 and 48 hours samples were taken from the donor side of the chamber.
The liquid chromatography phase was carried out using a Keystone Hypersil BDC C12 30×2.0 mm i.d., 3 μm, with guard column and 25 mM ammonium formate buffer (pH 3.5), where Aqueous Reservoir (A) was 90% water, 10% buffer, and Organic Reservoir (B) was 90% acetonitrile, 10% buffer. A flow rate of 300 μL/minute was applied to a gradient program of 0.0 min: 100% A, 0% B; 1.5 min: 0% A, 100% B; 2.0 min: 0% A, 100% B; 2.1 min: 100% A, 0% B; 3.5 min: 100% A, 0% B; for a total run time of 3.5 minutes (Autosampler: 30 μL injection volume; Autosampler Wash: water/acetonitrile/2-propanol:1/1/1; with 0.2% formic acid). Mass spectroscopy was carried out using a PE SCIEX API 3000 (interface: turbo ionspray; mode: multiple reaction monitoring; method: 3.5 minute duration).
The following calculations were performed: Flux=d[(Cr×Vr)/A]/dt

[2] = Formulations 1 and 2
[3] = system: women treated for cyclical mastalgia; details: in vivo; cited from earlier work

- Average Measured Concentration ± STD (N = 3) ([1]; 0 min): 8.9 ± 0.3 µg/mL
- Average Measured Concentration ± STD (N = 3) ([1]; 180 min): 8.5 ± 0.3 µg/mL
Compound: C#C[C@]1(O)CC[C@H]2[C@@H]3CCC4=Cc5oncc5C[C@]4(C)[C@H]3CC[C@@]21C [Danazol, danazol]

Compound: Cn1c(=O)c2c(ncn2C)n(C)c1=O [Caffeine, caffeine]
- Dosing solution concentration, Mean ± S.D. (in vitro; 100 μM): 108.7 ± 1.5 µM
- Cumulative Receiver Concentration (in vitro; female, human, 0 h, 100 μM): 0* μM
- Cumulative Receiver Concentration, Mean ± S.D. (in vitro; female, human, 0 h, 100 μM): 0 ± 0 µM
- Donor concentration, Mean ± S.D. (in vitro; female, human, 0 h, 100 μM): 102.7 ± 0.6 µM
- Cumulative Receiver Concentration, Mean ± S.D. (in vitro; female, human, 2 h, 100 μM): 0.009 ± 0.015 µM
- Cumulative Receiver Concentration, Mean ± S.D. (in vitro; female, human, 4 h, 100 μM): 0.018 ± 0.030 µM
- Cumulative Receiver Concentration, Mean ± S.D. (in vitro; female, human, 8 h, 100 μM): 0.050 ± 0.075 µM
- Cumulative Receiver Concentration, Mean ± S.D. (in vitro; female, human, 24 h, 100 μM): 0.196 ± 0.254 µM
- Cumulative Receiver Concentration, Mean ± S.D. (in vitro; female, human, 48 h, 100 μM): 0.390 ± 0.469 µM
- Donor concentration, Mean ± S.D. (in vitro; female, human, 48 h, 100 μM): 102.4 ± 11.2 µM
- recovery at 48 h, 100 µM (in vitro; female, human): 104%
- recovery at 48 h, 100 µM (in vitro; female, human, Mean ± S.D.): 95.6 ± 8.7%

- % Recovery, Mean ± S.D. (in vitro): 85.3 ± 5.4%
- Papp (in vitro): 0 ×10⁻⁶ cm/s
- Papp, Mean ± S.D. (in vitro): 0 ± 0 ×10^−6 cm/s
Compound: lucifer yellow
- Tissue integrity marker in receiver buffer (in vitro): below lower limit of quantification (LLOQ) in all receiver buffer
- Lucifer yellow permeation (membrane integrity) [2]: no permeation of Lucifer yellow detectable until after 8 or 24 hours of incubation

Compound: CC(C)C[C@H]1C(=O)N2CCC[C@H]2[C@]2(O)O[C@](NC(=O)[C@@H]3C=C4c5cccc6[nH]c(Br)c(c56)C[C@H]4N(C)C3)(C(C)C)C(=O)N12 [Bromocriptine]
- Women complaining of more severe side effects [3]: 10%
- Women reporting mild side effects (nausea, dizziness, headaches, irritability) [3]: 30%
